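Following 48 hours of exposure in 96-well plates, responses at five concentrations were used to interpolate endpoints linearly. At the GI50, growth is halved.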 Calls of active or inactive are those of the source. Cut-off read from the data, not from the text of the source: active = GI50 up to about 1.1 µM and inactive = higher.
How the values were obtained:
Experiment in all cases: growth of human tumour cells (NCI), 48 h
HCT-116 = system: HCT-116
A498 = system: A498
RPMI-8226 = system: RPMI-8226
HCT-15 = system: HCT-15
HOP-62 = system: HOP-62
CCRF-CEM = system: CCRF-CEM
SK-MEL-28 = system: SK-MEL-28
SF-268 = system: SF-268
NCI-H460 = system: NCI-H460
SK-MEL-5 = system: SK-MEL-5
CAKI-1 = system: CAKI-1
SW-620 = system: SW-620
SNB-75 = system: SNB-75
TK-10 = system: TK-10
A549 = system: A549
OVCAR-8 = system: OVCAR-8
NCI/ADR-RES = system: NCI/ADR-RES
HOP-92 = system: HOP-92
IGROV-1 = system: IGROV-1
SR = system: SR

| Structure (SMILES) | GI50 (HCT-116) | GI50 (A498) | GI50 (RPMI-8226) | GI50 (HCT-15) | GI50 (HOP-62) | GI50 (CCRF-CEM) | GI50 (SK-MEL-28) | GI50 (SF-268) | GI50 (NCI-H460) | GI50 (SK-MEL-5) | GI50 (CAKI-1) | GI50 (SW-620) | GI50 (SNB-75) | GI50 (TK-10) | GI50 (A549) | GI50 (OVCAR-8) | GI50 (NCI/ADR-RES) | GI50 (HOP-92) | GI50 (IGROV-1) | GI50 (SR) |
| --- | --- | --- | --- | --- | --- | --- | --- | --- | --- | --- | --- | --- | --- | --- | --- | --- | --- | --- | --- | --- |
| CCCCS/C(=C(/C#N)C(N)=O)c1cc2c([nH]1)CCCC2 | 11 µM (inactive) | 17.6 µM (inactive) | 6.71 µM (inactive) | 9.71 µM | 21.9 µM (inactive) | 6.7 µM (inactive) | 14 µM (inactive) | 13.8 µM (inactive) | 18.7 µM (inactive) | 13.8 µM (inactive) | 14 µM (inactive) | 6.12 µM (inactive) | 15.3 µM (inactive) | 15.3 µM (inactive) | 21.9 µM (inactive) | 15.6 µM (inactive) | 8 µM (inactive) | 17.1 µM (inactive) |  |  |
| COc1cccc2c(Nc3ccc(S(=O)(=O)Nc4ncccn4)cc3)c3ccc([N+](=O)[O-])cc3nc12 | 22.4 µM (inactive) | > 100 µM (inactive) | 8.67 µM (inactive) | 24.7 µM | 85.3 µM (inactive) | 9.82 µM (inactive) | > 100 µM (inactive) | > 100 µM (inactive) | 27.7 µM (inactive) | 54.5 µM (inactive) | 4.8 µM (inactive) | 63.8 µM (inactive) |  | > 100 µM (inactive) | > 100 µM (inactive) |  |  | 12.4 µM (inactive) | 4.13 µM (inactive) | 1.95 µM (inactive) |
| c1cc(-c2ccc(-c3ccc(-c4ccc(-c5cccc6nsnc56)[nH]4)c4nsnc34)[nH]2)c2nsnc2c1 | > 100 µM (inactive) |  | > 100 µM (inactive) | > 100 µM | > 100 µM (inactive) | > 100 µM (inactive) | > 100 µM (inactive) | > 100 µM (inactive) | > 100 µM (inactive) | > 100 µM (inactive) |  | > 100 µM (inactive) | > 100 µM (inactive) | > 100 µM (inactive) | > 100 µM (inactive) | > 100 µM (inactive) | > 100 µM (inactive) | > 100 µM (inactive) | > 100 µM (inactive) |  |
| CCOC(=O)Cc1c(C)c2cc(C(=O)c3ccccc3)c(O)cc2oc1=O | 33.3 µM (inactive) | 25.3 µM (inactive) | 29.3 µM (inactive) | 29.4 µM | 35.6 µM (inactive) | 31.1 µM (inactive) | 34.2 µM (inactive) | 24.9 µM (inactive) | 33.3 µM (inactive) | 17.6 µM (inactive) | 30.6 µM (inactive) | 45.1 µM (inactive) | 30.4 µM (inactive) | 43.4 µM (inactive) | 25.8 µM (inactive) | 34.1 µM (inactive) | 26.1 µM (inactive) | 21.6 µM (inactive) | 39.6 µM (inactive) |  |
| CC(=O)C1Cn2c(=O)c3cc4ccccc4cc3c(=O)n2C=C1C (stereo not drawn) | > 100 µM (inactive) | 43.5 µM (inactive) | > 100 µM (inactive) | 76.7 µM | > 100 µM (inactive) | > 100 µM (inactive) | > 100 µM (inactive) | > 100 µM (inactive) | 97.9 µM (inactive) | 91.4 µM (inactive) | > 100 µM (inactive) | > 100 µM (inactive) | 67.8 µM (inactive) | > 100 µM (inactive) | > 100 µM (inactive) | > 100 µM (inactive) |  | 61.2 µM (inactive) | > 100 µM (inactive) | > 100 µM (inactive) |
| CCSC(SCC)=C1C(=O)N(c2ccccc2)N=C1C | 15.1 µM (inactive) | 15.3 µM (inactive) | 7.67 µM (inactive) | 12.3 µM | 23.3 µM (inactive) | 2.92 µM (inactive) | 12.9 µM (inactive) | 14.1 µM (inactive) | 16 µM (inactive) | 18.3 µM (inactive) | 3.8 µM (inactive) | 7.66 µM (inactive) | 20.6 µM (inactive) | 10.1 µM (inactive) | 18.1 µM (inactive) | 11.6 µM (inactive) |  | 6.38 µM (inactive) | 17.4 µM (inactive) | 15.6 µM (inactive) |
| O=[N+]([O-])/C(C(Cl)=C(Cl)Cl)=C(\Nc1cccc2ccccc12)Sc1ccccc1 | 15 µM (inactive) | 11 µM (inactive) | 6.89 µM (inactive) | 15.7 µM | 23.9 µM (inactive) | 8.55 µM (inactive) | 18.7 µM (inactive) | 12.9 µM (inactive) | 19.8 µM (inactive) |  | 15.5 µM (inactive) | 8.53 µM (inactive) | 19.2 µM (inactive) |  | 19.7 µM (inactive) | 15.3 µM (inactive) | 15.2 µM (inactive) |  |  |  |
| N#C/C(=C(/S)Nc1ccccc1)c1nc2ccccc2[nH]1 | > 10 µM (inactive) | > 10 µM (inactive) | > 10 µM (inactive) | > 10 µM | > 10 µM (inactive) | > 10 µM (inactive) | > 10 µM (inactive) | > 10 µM (inactive) | > 10 µM (inactive) | > 10 µM (inactive) | > 10 µM (inactive) | > 10 µM (inactive) | > 10 µM (inactive) | > 10 µM (inactive) | > 10 µM (inactive) | > 10 µM (inactive) |  | > 10 µM (inactive) | 1 µM (active) | > 10 µM (inactive) |
